According to patent US8952157B2, “Apoptosis-inducing agents for the treatment of cancer and immune and autoimmune diseases” (AbbVie Inc., priority 2008, dated 2015):
pKi: −log10 of the molar value.

target: GST-Bcl-2 (Homo sapiens (Human), UniProt P10415); experiment: Time Resolved-Fluorescence Resonance Energy Transfer (TR-FRET) Bcl-2 binding assay; conditions: GST-Bcl-2 1 nM, F-Bak peptide probe 100 nM, Tb-anti-GST antibody 1 nM; Ki by Wang's equation
Procedure: Determination of the utility of compounds having Formula (I) as binders to and inhibitors of anti-apoptotic Bcl-2 proteins was performed using the Time Resolved-Fluorescence Resonance Energy Transfer (TR-FRET) Assay. Tb-anti-GST antibody was purchased from Invitrogen (Catalog No. PV4216).
(§1) Representative compounds were serially diluted in dimethyl sulfoxide (DMSO) starting at 50 μM (2× starting concentration; 10% DMSO) and 10 μL were transferred into a 384-well plate. The samples are then mixed on a shaker for 1 minute and incubated for an additional 3 hours at room temperature. For each assay, the probe/antibody and protein/probe/antibody were included on each assay plate as negative and positive controls, respectively. Fluorescence was measured on the Envision (Perkin Elmer) using a 340/35 nm excitation filter and 520/525 (F-Bak peptide) and 495/510 nm (Tb-labeled anti-Histidine antibody) emission filters.
as §1, with “The” for “Representative compounds were serially diluted in dimethyl sulfoxide (DMSO) starting at 50 μM (2× starting concentration; 10% DMSO) and 10 μL were transferred into a 384-well plate. The”, “were” for “are”
The inhibition constant (Ki) is the dissociation constant of an enzyme-inhibitor complex or a protein/small molecule complex, wherein the small molecule is inhibiting binding of one protein to another protein. So a large Ki value indicates a low binding affinity and a small Ki value indicates a high binding affinity.

Chain of GST-Bcl-2 (P10415 whole entry): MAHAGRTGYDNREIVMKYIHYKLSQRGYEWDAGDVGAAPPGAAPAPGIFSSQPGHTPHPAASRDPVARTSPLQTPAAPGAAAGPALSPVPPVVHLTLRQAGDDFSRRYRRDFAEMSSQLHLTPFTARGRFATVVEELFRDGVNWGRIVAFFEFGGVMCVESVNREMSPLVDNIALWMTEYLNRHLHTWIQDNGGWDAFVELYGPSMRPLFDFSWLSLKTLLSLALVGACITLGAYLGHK

| Compound | pKi |
| --- | --- |
| CC1(C)CCC(CN2CCN(c3ccc(C(=O)NS(=O)(=O)c4ccc(NCC5CCOCC5)c([N+](=O)[O-])c4)c(Oc4ccc(NC5CC5)nc4)c3)CC2)=C(c2ccc(Cl)cc2)C1 [Example 374, 4-(4-{[2-(4-chlorophenyl)-4,4-dimethylcyclohex-1-en-1-yl]methyl}piperazin-1-yl)-2-{[6-(cyclopropylamino)pyridin-3-yl]oxy}-N-({3-nitro-4-[(tetrahydro-2H-pyran-4-ylmethyl)amino]phenyl}sulfonyl)benzamide] | 8.27 |
| CN1CCC(Nc2ccc(S(=O)(=O)NC(=O)c3ccc(N4CCN(CC5=C(c6ccc(Cl)cc6)CC(C)(C)CC5)CC4)cc3Oc3ccc4nc(N)sc4c3)cc2[N+](=O)[O-])CC1 [Example 229, 2-[(2-amino-1,3-benzothiazol-6-yl)oxy]-4-(4-{[2-(4-chlorophenyl)-4,4-dimethylcyclohex-1-en-1-yl]methyl}piperazin-1-yl)-N-({4-[(1-methylpiperidin-4-yl)amino]-3-nitrophenyl}sulfonyl)benzamide] | 8.96 |
| COc1cc2[nH]ccc2cc1Oc1cc(N2CCN(CC3=C(c4ccc(Cl)cc4)CC(C)(C)CC3)CC2)ccc1C(=O)NS(=O)(=O)c1ccc(NC2CCN(C3CCOCC3)CC2)c([N+](=O)[O-])c1 [Example 227, 4-(4-{[2-(4-chlorophenyl)-4,4-dimethylcyclohex-1-en-1-yl]methyl}piperazin-1-yl)-2-[(6-methoxy-1H-indol-5-yl)oxy]-N-({3-nitro-4-[(1-tetrahydro-2H-pyran-4-ylpiperidin-4-yl)amino]phenyl}sulfonyl)benzamide] | 9.76 |
| CC(C)N1CCC2(CCC(c3ccc(Cl)cc3)=C(CN3CCN(c4ccc(C(=O)NS(=O)(=O)c5ccc(NCC6CCOCC6)c([N+](=O)[O-])c5)c(Oc5cnc(N)c(Cl)c5)c4)CC3)C2)CC1 [Example 392, 2-[(6-amino-5-chloropyridin-3-yl)oxy]-4-(4-{[9-(4-chlorophenyl)-3-isopropyl-3-azaspiro[5.5]undec-8-en-8-yl]methyl}piperazin-1-yl)-N-({3-nitro-4-[(tetrahydro-2H-pyran-4-ylmethyl)amino]phenyl}sulfonyl)benzamide] | > 11.00 |
| CC1(C)CCC(CN2CCN(c3ccc(C(=O)NS(=O)(=O)c4ccc(NCC5CCOCC5)c([N+](=O)[O-])c4)c(Oc4ccccc4-c4cccnc4N)c3)CC2)=C(c2ccc(Cl)cc2)C1 [Example 407, 2-[2-(2-aminopyridin-3-yl)phenoxy]-4-(4-{[2-(4-chlorophenyl)-4,4-dimethylcyclohex-1-en-1-yl]methyl}piperazin-1-yl)-N-({3-nitro-4-[(tetrahydro-2H-pyran-4-ylmethyl)amino]phenyl}sulfonyl)benzamide] | 9.02 |
| CC1(C)CCC(CN2CCN(c3ccc(C(=O)NS(=O)(=O)c4cnc(OCC5CCOCC5)c(C#N)c4)c(Oc4cc5cc[nH]c5cc4F)c3)CC2)=C(c2ccc(Cl)cc2)C1 [Example 301, 4-(4-{[2-(4-chlorophenyl)-4,4-dimethylcyclohex-1-en-1-yl]methyl}piperazin-1-yl)-N-{[5-cyano-6-(tetrahydro-2H-pyran-4-ylmethoxy)pyridin-3-yl]sulfonyl}-2-[(6-fluoro-1H-indol-5-yl)oxy]benzamide] | 9.95 |
| CC1(C)CCC(CN2CCN(c3ccc(C(=O)NS(=O)(=O)c4ccc(NC5CCN(CCF)CC5)c([N+](=O)[O-])c4)c(Oc4cccc(F)c4F)c3)CC2)=C(c2ccc(Cl)cc2)C1 [Example 140, 4-(4-{[2-(4-chlorophenyl)-4,4-dimethylcyclohex-1-en-1-yl]methyl}piperazin-1-yl)-2-(2,3-difluorophenoxy)-N-[(4-{[1-(2-fluoroethyl)piperidin-4-yl]amino}-3-nitrophenyl)sulfonyl]benzamide] | 9.65 |
| CC1(C)CCC(CN2CCN(c3ccc(C(=O)NS(=O)(=O)c4ccc(NC5CCN(C6CCOCC6)CC5)c([N+](=O)[O-])c4)c(Oc4ccc5nc(N)sc5c4)c3)CC2)=C(c2ccc(Cl)cc2)C1 [Example 232, 2-[(2-amino-1,3-benzothiazol-6-yl)oxy]-4-(4-{[2-(4-chlorophenyl)-4,4-dimethylcyclohex-1-en-1-yl]methyl}piperazin-1-yl)-N-({3-nitro-4-[(1-tetrahydro-2H-pyran-4-ylpiperidin-4-yl)amino]phenyl}sulfonyl)benzamide] | 8.98 |
| CC1(C)CCC(CN2CCN(c3ccc(C(=O)NS(=O)(=O)c4ccc(NCC5CCOCC5)c([N+](=O)[O-])c4)c(Oc4cnc(N)c(C(N)=O)c4)c3)CC2)=C(c2ccc(Cl)cc2)C1 [Example 351, 2-amino-5-(5-(4-{[2-(4-chlorophenyl)-4,4-dimethylcyclohex-1-en-1-yl]methyl}piperazin-1-yl)-2-{[({3-nitro-4-[(tetrahydro-2H-pyran-4-ylmethyl)amino]phenyl}sulfonyl)amino]carbonyl}phenoxy)nicotinamide] | 8.55 |
| CC1(C)CCC(CN2CCN(c3ccc(C(=O)NS(=O)(=O)c4ccc(OCC5COCCO5)c([N+](=O)[O-])c4)c(Oc4cc5cc[nH]c5cc4F)c3)CC2)=C(c2ccc(Cl)cc2)C1 (stereo not drawn) [Example 285, 4-(4-{[2-(4-chlorophenyl)-4,4-dimethylcyclohex-1-en-1-yl]methyl}piperazin-1-yl)-N-{[4-(1,4-dioxan-2-ylmethoxy)-3-nitrophenyl]sulfonyl}-2-[(6-fluoro-1H-indol-5-yl)oxy]benzamide] | 10.43 |
| CC(=O)Nc1cccc(Oc2cc(N3CCN(CC4=C(c5ccc(Cl)cc5)CC(C)(C)CC4)CC3)ccc2C(=O)NS(=O)(=O)c2ccc(NC3CCN(C4CCOCC4)CC3)c([N+](=O)[O-])c2)c1 [Example 225, 2-[3-(acetylamino)phenoxy]-4-(4-{[2-(4-chlorophenyl)-4,4-dimethylcyclohex-1-en-1-yl]methyl}piperazin-1-yl)-N-({3-nitro-4-[(1-tetrahydro-2H-pyran-4-ylpiperidin-4-yl)amino]phenyl}sulfonyl)benzamide] | 8.48 |
| CN1CCC(Nc2ccc(S(=O)(=O)NC(=O)c3ccc(N4CCN(CC5=C(c6ccc(Cl)cc6)CC(C)(C)CC5)CC4)cc3Oc3ccc(F)cc3)cc2[N+](=O)[O-])CC1 [Example 118, 4-(4-{[2-(4-chlorophenyl)-4,4-dimethylcyclohex-1-en-1-yl]methyl}piperazin-1-yl)-2-(4-fluorophenoxy)-N-({4-[(1-methylpiperidin-4-yl)amino]-3-nitrophenyl}sulfonyl)benzamide] | 9.82 |
| O=C(NS(=O)(=O)c1ccc(NCC2CCOCC2)c([N+](=O)[O-])c1)c1ccc(N2CCN(Cc3ccccc3-c3ccc(Cl)cc3)CC2)cc1Oc1cccc(Cl)c1 [Example 6, 4-(4-((4′-chloro-1,1′-biphenyl-2-yl)methyl)piperazin-1-yl)-2-(3-chlorophenoxy)-N-((3-nitro-4-((tetrahydro-2H-pyran-4-ylmethyl)amino)phenyl)sulfonyl)benzamide] | 9.10 |
| COCCNc1ccc(S(=O)(=O)NC(=O)c2ccc(N3CCN(CC4=C(c5ccc(Cl)cc5)CC(C)(C)CC4)CC3)cc2Oc2cccc3c2CC(=O)N3)cc1[N+](=O)[O-] [Example 321, 4-(4-{[2-(4-chlorophenyl)-4,4-dimethylcyclohex-1-en-1-yl]methyl}piperazin-1-yl)-N-({4-[(2-methoxyethyl)amino]-3-nitrophenyl}sulfonyl)-2-[(2-oxo-2,3-dihydro-1H-indol-4-yl)oxy]benzamide] | 10.54 |
| CC1(C)CCC(CN2CCN(c3ccc(C(=O)NS(=O)(=O)c4ccc(NCCCN5CCNC(=O)C5)c([N+](=O)[O-])c4)c(Oc4cc(F)cc5[nH]ccc45)c3)CC2)=C(c2ccc(Cl)cc2)C1 [Example 257, 4-(4-{[2-(4-chlorophenyl)-4,4-dimethylcyclohex-1-en-1-yl]methyl}piperazin-1-yl)-2-[(6-fluoro-1H-indol-4-yl)oxy]-N-[(3-nitro-4-{[3-(3-oxopiperazin-1-yl)propyl]amino}phenyl)sulfonyl]benzamide] | 10.01 |
| CN1CCN(Nc2ccc(S(=O)(=O)NC(=O)c3ccc(N4CCN(CC5=C(c6ccc(Cl)cc6)CC(C)(C)OC5)CC4)cc3Oc3cc4cc[nH]c4cc3F)cc2[N+](=O)[O-])CC1 [Example 316, 4-(4-{[4-(4-chlorophenyl)-6,6-dimethyl-5,6-dihydro-2H-pyran-3-yl]methyl}piperazin-1-yl)-2-[(6-fluoro-1H-indol-5-yl)oxy]-N-({4-[(4-methylpiperazin-1-yl)amino]-3-nitrophenyl}sulfonyl)benzamide] | 10.24 |
| Cc1n[nH]c2cccc(Oc3cc(N4CCN(CC5=C(c6ccc(Cl)cc6)CC(C)(C)CC5)CC4)ccc3C(=O)NS(=O)(=O)c3ccc(NC4CCN(C)CC4)c([N+](=O)[O-])c3)c12 [Example 55, 4-(4-((2-(4-chlorophenyl)-4,4-dimethylcyclohex-1-en-1-yl)methyl)piperazin-1-yl)-2-((3-methyl-1H-indazol-4-yl)oxy)-N-((4-((1-methylpiperidin-4-yl)amino)-3-nitrophenyl)sulfonyl)benzamide] | 10.05 |
| COc1ccccc1Oc1cc(N2CCN(CC3=C(c4ccc(Cl)cc4)CC(C)(C)CC3)CC2)ccc1C(=O)NS(=O)(=O)c1ccc(NC2CCN(C)CC2)c([N+](=O)[O-])c1 [Example 180, 4-(4-{[2-(4-chlorophenyl)-4,4-dimethylcyclohex-1-en-1-yl]methyl}piperazin-1-yl)-2-(2-methoxyphenoxy)-N-({4-[(1-methylpiperidin-4-yl)amino]-3-nitrophenyl}sulfonyl)benzamide] | 9.95 |
